The data set concerns CV-1 cells. As to the kind of experiment: MTT cytotoxicity. The class given is cell-based. As to the method:
HFPO-DA was assessed for agonism and antagonism of transcriptional activation for estrogen (ER), androgen (AR), and glucocorticoid receptors (GR). Method details for in vitro transactivation assays for ER ([Wilson et al. 2004a]), AR ([Hartig et al. 2002], [2007]), and GR ([Conley et al. 2017]; [Medlock Kakaley et al. 2018]) have been previously reported. Briefly, for ER activity we utilized the stably transfected T47D-KBluc cell line [publicly available via American Type Culture Collection (ATCC); CRL-2865] according to protocols provided by ATCC with the modification of Dulbecco’s Modified Eagle Media (DMEM) as the cell culture media instead of Roswell Park Memorial Institute (RPMI) media. […] All assays were run in 96-well plates and luminescence was detected using a BMG Fluostar Omega luminometer (BMG Labtech) following 24-h exposure. […] Cellular cytotoxicity across the dosing range was determined for CV-1 cells utilizing the 3-(4,5-dimethylthiazol-2-yl)-2,5-diphenyltetrazolium bromide (MTT) dye ([Mosmann 1983]). HFPO-DA was analyzed using n=2–3 biological replicate assay plates (i.e., unique cell passages) with four technical replicates per treatment per plate.

`O=C(O)C(F)(OC(F)(F)C(F)(F)C(F)(F)F)C(F)(F)F` (stereo not shown) [HFPO-DA, Hexafluoropropylene oxide dimer acid] showed a cytotoxic dose of 300 µM.

For the origin of these results see article PMC6768323, “Adverse Maternal, Fetal, and Postnatal Effects of Hexafluoropropylene Oxide Dimer Acid (GenX) from Oral Gestational Exposure in Sprague-Dawley Rats” (Environmental Health Perspectives, 2019).
